Marks after values point to notes of the source that are not given here.
Key:
[1] = system: subjects expected to require daily NSAID therapy; experiment: REDUCE-1 study: endoscopically diagnosed gastric, duodenal and UGI ulcers; format: in vivo, human; settings: for Proportion of subjects with Duodenal Ulcer / Proportion of subjects with Gastric Ulcer / Proportion of subjects with UGI Ulcer / UGI Ulcer: Subjects with Low-dose Aspirin Use / UGI Ulcer: Subjects with Prior Ulcer: REDUCE-1, 24 weeks
Description: Subjects were deemed a treatment failure and terminated early from the study in the event they developed an endoscopically diagnosed UGI ulcer. Subjects who terminated early for reasons other than development of an endoscopically diagnosed UGI ulcer were to undergo an endoscopic examination at a termination visit that was conducted as soon as possible after administration of their final dose of study drug. The predefined population for primary analyses of ulcers was all subjects with ≧1 follow-up study endoscopy.

[2] = system: subjects expected to require daily NSAID therapy; experiment: REDUCE-1 study: adverse events
Description: (§1) Randomization was stratified based on aspirin/anticoagulant therapy and prior ulcer history.
Secondary endpoints were UGI ulcers, duodenal ulcers, and serious GI complications

[3] = system: subjects expected to require daily NSAID therapy; experiment: REDUCE-2 study: adverse events
Description: as §1
Secondary endpoints were gastric ulcers, duodenal ulcers, and serious GI complications.

[4] = system: subjects expected to require daily NSAID therapy; experiment: Integrated REDUCE-1 and REDUCE-2: adverse events
[5] = system: subjects expected to require daily NSAID therapy; experiment: Pooled REDUCE-1 and REDUCE-2: UGI ulcers by subgroup; format: in vivo, human; settings: for Subjects who developed an upper gastrointestinal ulcer: clinical studies of HZT-501; for Proportion of subjects who developed at least one UGI ulcer: pooled, Week 24 life table
Text: In addition to examining potential risk factors together in a statistical model, the effect of treatment was examined in the combined studies overall and within various subgroups of interest. These subgroups included age category (<65, […]), prior history of UGI ulcer (yes, no), use of low-dose aspirin (LDA) (yes, no), and gender. […] Treatment was the only factor included in the model.

[6] = system: subjects who completed REDUCE-1 or REDUCE-2 without ulcer; settings: human, in vivo, 28 weeks
[7] = crude proportion, listed as ibuprofen
[8] = life table estimate, listed as ibuprofen
[9] = REDUCE-1, early drop-outs imputed as treatment failures
[10] = integrated REDUCE-1 and REDUCE-2

Compound: CC(C)Cc1ccc(C(C)C(=O)O)cc1 (centres unmarked) [Ibuprofen, 2-(p-isobutylphenyl)propionic acid]
- Proportion of subjects with Duodenal Ulcer ([1]; crude proportion): 14/262 (5.3%);
- Proportion of subjects with Gastric Ulcer ([1]; crude proportion): 52/262 (19.8%);
- Proportion of subjects with UGI Ulcer ([1]; crude proportion): 61/262 (23.3%)*;
- UGI Ulcer: Subjects with Low-dose Aspirin Use ([1]; crude proportion): 10/32 (31.3%);
- UGI Ulcer: Subjects with Prior Ulcer ([1]; crude proportion): 4/15 (26.7%);
- Proportion of subjects with Duodenal Ulcer [1, 7]: 5.3%
- Proportion of subjects with Gastric Ulcer [1, 7]: 19.8%
- Proportion of subjects with UGI Ulcer [1, 7]: 23.3%
- Proportion of subjects with Duodenal Ulcer ([1]; life table estimate): 7.1%
- Proportion of subjects with Gastric Ulcer ([1]; life table estimate): 25.3%
- Proportion of subjects with UGI Ulcer ([1]; life table estimate): 29.1%*
- UGI Ulcer: Subjects with Low-dose Aspirin Use ([1]; life table estimate): 33.3%
- UGI Ulcer: Subjects with Prior Ulcer ([1]; life table estimate): 27.3%
- Proportion of subjects with Duodenal Ulcer [1, 8]: 7.1%
- Proportion of subjects with Gastric Ulcer [1, 8]: 25.3%
- Proportion of subjects with UGI Ulcer [1, 8]: 29.1%
- Crude ulcer rate, UGI ulcer [1, 9]: 30.2%
- Crude ulcer rate, gastric ulcers [1, 9]: 26.7%
- NSAID associated serious GI complications, % of subjects ([1]; REDUCE-1, secondary efficacy endpoint): none
- AEs Leading to Discontinuation, Incidence (%) [2]: 7.7%
- AEs by Relatedness: Possibly Related, Incidence (%) [2]: 23.1%
- AEs by Relatedness: Probably Not Related, Incidence (%) [2]: 38.1%
- AEs by Severity: Life Threatening, Incidence (%) [2]: 0.7%
- AEs by Severity: Moderate, Incidence (%) [2]: 27.1%
- AEs by Severity: Severe, Incidence (%) [2]: 7.0%
- Abdominal Pain Upper, Incidence (%) [2]: 4.0%
- Any GI Event, Incidence (%) [2]: 27.4* %
- Cardiac Disorders, Incidence (%) [2]: 1.3%
- Constipation, Incidence (%) [2]: 4.3%
- Deaths, Incidence % [2]: 1/0.1%
- Diarrhea, Incidence (%) [2]: 4.3%
- Dyspepsia, Incidence (%) [2]: 7.7%
- General Disorders/Administrative Site Conditions, Incidence (%) [2]: 7.7%
- Hepatobiliary Disorders, Incidence (%) [2]: 0.0%
- Hypertension, Incidence (%) [2]: 2.3%
- Injury, Poisoning, Procedural Complications, Incidence (%) [2]: 6.0%
- Investigations, Incidence (%) [2]: 5.0%
- Musculoskeletal/connective Tissue Disorders, Incidence (%) [2]: 8.0%
- Nausea, Incidence (%) [2]: 4.3%
- Nervous System Disorders, Incidence (%) [2]: 7.0%
- Renal and Urinary Disorders, Incidence (%) [2]: 1.0%
- Respiratory, Thoracic and Mediastinal Disorders, Incidence (%) [2]: 8.7%
- SAEs leading to discontinuation, Incidence % [2]: 2/0.7%
- Subjects with at least one AE, Incidence (%) [2]: 61.2%
- Total SAEs, Incidence % [2]: 13/4.3%
- Withdrawals due to GI, Incidence (%) [2]: 5.0%
- AEs Leading to Discontinuation, Incidence (%) [3]: 7.1%
- AEs by Severity: Life Threatening, Incidence (%) [3]: 0.0%
- AEs by Severity: Moderate, Incidence (%) [3]: 21.7%
- AEs by Severity: Severe, Incidence (%) [3]: 6.6%
- Abdominal Pain Upper, Incidence (%) [3]: 1.9%
- Any GI Event, Incidence (%) [3]: 29.7* %
- Cardiac Disorders, Incidence (%) [3]: 0.5%
- Constipation, Incidence (%) [3]: 3.8%
- Deaths, Incidence % [3]: 0/0.0%
- Diarrhea, Incidence (%) [3]: 4.2%
- Dyspepsia, Incidence (%) [3]: 8.5** %
- General Disorders/Administrative Site Conditions, Incidence (%) [3]: 3.8%
- Hepatobiliary Disorders, Incidence (%) [3]: 0.0%
- Hypertension, Incidence (%) [3]: 1.9%
- Infections/Infestations, Incidence (%) [3]: 19.3%
- Injury, Poisoning, Procedural Complications, Incidence (%) [3]: 3.8%
- Investigations, Incidence (%) [3]: 2.4%
- Musculoskeletal/connective Tissue Disorders, Incidence (%) [3]: 5.2%
- Nausea, Incidence (%) [3]: 5.2%
- Nervous System Disorders, Incidence (%) [3]: 4.7%
- Renal and Urinary Disorders, Incidence (%) [3]: 0.0%
- Respiratory, Thoracic and Mediastinal Disorders, Incidence (%) [3]: 4.7%
- SAEs leading to discontinuation, Incidence % [3]: 2/0.9%
- Subjects with at least one AE, Incidence (%) [3]: 54.7%
- Total SAEs, Incidence % [3]: 4/1.9%
- Withdrawals due to GI, Incidence (%) [3]: 5.2*** %
- AEs Leading to Discontinuation, Incidence (%) [4, 10]: 7.6%
- AEs by Relatedness: Possibly Related, Incidence (%) [4, 10]: 25.0%
- AEs by Relatedness: Probably Not Related, Incidence (%) [4, 10]: 33.7%
- AEs by Severity: Life Threatening, Incidence (%) [4, 10]: 0.4%
- AEs by Severity: Moderate, Incidence (%) [4, 10]: 25.0%
- AEs by Severity: Severe, Incidence (%) [4, 10]: 6.8%
- Subjects with at least one AE, Incidence (%) [4, 10]: 58.7%
- TEAE: Abdominal distension ([4]; integrated, safety population): 1.4 (7) %
- TEAE: Abdominal pain ([4]; integrated, safety population): 1.6 (8) %
- TEAE: Abdominal pain upper ([4]; integrated, safety population): 2.5 (13) %
- TEAE: Abdominal tenderness ([4]; integrated, safety population): 1.0 (5) %
- TEAE: Anaemia ([4]; integrated, safety population): 1.4 (7) %
- TEAE: Arthralgia ([4]; integrated, safety population): 1.8 (9) %
- TEAE: Back pain ([4]; integrated, safety population): 0.8 (4) %
- TEAE: Blood and lymphatic system disorders ([4]; integrated, safety population): 1.8 (9) %
- TEAE: Bronchitis ([4]; integrated, safety population): 1.2 (6) %
- TEAE: Constipation ([4]; integrated, safety population): 4.1 (21) %
- TEAE: Cough ([4]; integrated, safety population): 2.0 (10) %
- TEAE: Diarrhoea ([4]; integrated, safety population): 4.3 (22) %
- TEAE: Dizziness ([4]; integrated, safety population): 1.4 (7) %
- TEAE: Dyspepsia ([4]; integrated, safety population): 8.0 (41) %
- TEAE: Dyspnoea ([4]; integrated, safety population): 1.0 (5) %
- TEAE: Fall ([4]; integrated, safety population): 1.0 (5) %
- TEAE: Fatigue ([4]; integrated, safety population): 1.0 (5) %
- TEAE: Flatulence ([4]; integrated, safety population): 0.4 (2) %
- TEAE: Gastritis ([4]; integrated, safety population): 1.4 (7) %
- TEAE: Gastro-oesophageal reflux disease ([4]; integrated, safety population): 3.1 (16) %
- TEAE: Gastroenteritis viral ([4]; integrated, safety population): 0.8 (4) %
- TEAE: Gastrointestinal disorders ([4]; integrated, safety population): 28.4 (145) %
- TEAE: General disorders and administration site conditions ([4]; integrated, safety population): 4.5 (23) %
- TEAE: Headache ([4]; integrated, safety population): 3.3 (17) %
- TEAE: Hypertension ([4]; integrated, safety population): 2.2 (11) %
- TEAE: Infections and infestations ([4]; integrated, safety population): 20.7 (106) %
- TEAE: Influenza ([4]; integrated, safety population): 1.6 (8) %
- TEAE: Injury, poisoning and procedural complications ([4]; integrated, safety population): 5.1 (26) %
- TEAE: Insomnia ([4]; integrated, safety population): 1.0 (5) %
- TEAE: Muscle spasms ([4]; integrated, safety population): 0.4 (2) %
- TEAE: Musculoskeletal and connective tissue disorders ([4]; integrated, safety population): 6.8 (35) %
- TEAE: Musculoskeletal pain ([4]; integrated, safety population): 0.8 (4) %
- TEAE: Nasopharyngitis ([4]; integrated, safety population): 2.7 (14) %
- TEAE: Nausea ([4]; integrated, safety population): 4.7 (24) %
- TEAE: Nervous system disorders ([4]; integrated, safety population): 6.1 (31) %
- TEAE: Oedema peripheral ([4]; integrated, safety population): 1.8 (9) %
- TEAE: Pain in extremity ([4]; integrated, safety population): 0.8 (4) %
- TEAE: Pharyngolaryngeal pain ([4]; integrated, safety population): 1.2 (6) %
- TEAE: Psychiatric disorders ([4]; integrated, safety population): 3.1 (16) %
- TEAE: Rash ([4]; integrated, safety population): 1.0 (5) %
- TEAE: Respiratory, thoracic and mediastinal disorders ([4]; integrated, safety population): 7.0 (36) %
- TEAE: Sinus congestion ([4]; integrated, safety population): 1.4 (7) %
- TEAE: Sinusitis ([4]; integrated, safety population): 2.7 (14) %
- TEAE: Skin and subcutaneous tissue disorders ([4]; integrated, safety population): 3.5 (18) %
- TEAE: Stomach discomfort ([4]; integrated, safety population): 1.6 (8) %
- TEAE: Upper respiratory tract infection ([4]; integrated, safety population): 4.1 (21) %
- TEAE: Urinary tract infection ([4]; integrated, safety population): 2.3 (12) %
- TEAE: Vascular disorders ([4]; integrated, safety population): 2.7 (14) %
- TEAE: Vomiting ([4]; integrated, safety population): 1.8 (9) %
- Total Subjects With at Least One TEAE ([4]; integrated, safety population): 58.7 (300) %
- Subjects who developed an upper gastrointestinal ulcer ([5]; subjects who used low-dose aspirin): 35%
- Subjects who developed an upper gastrointestinal ulcer ([5]; subjects with a prior history of gastrointestinal ulcer): 24%
- Proportion of subjects who developed at least one UGI ulcer ([5]; Age <65 years): 26.3%
- Proportion of subjects who developed at least one UGI ulcer ([5]; Age ≧65 years): 26.6%
- Proportion of subjects who developed at least one UGI ulcer ([5]; Age ≧65 years, listed as ibuprofen): 27%
- Proportion of subjects who developed at least one UGI ulcer ([5]; Female): 28.3%
- Proportion of subjects who developed at least one UGI ulcer ([5]; Race Other): 13.3%
- Viral infection [6]: 2.1 (1) % (n)

Reference: patent US20130078287A1 (Horizon Pharma USA, Inc., priority 2010, published 2013)
